Reference: patent publication US10409869B2, “(R)- and (S)-1-(3-(3-N,N-dimethylaminocarbonyl)phenoxyl-4-nitrophenyl)-1-ethyl-N,N'-bis (ethylene)phosphoramidate, compositions and methods for their use and preparation” (OBI Pharma, Inc., priority 2015, dated 2019)

Legend:
[1] = Plasma concentration and TK after 30-min IV infusion at 2 mg/kg; assay type: in vivo, Cynomolgus monkeys; conditions: Cynomolgus, cynomolgus monkey, plasma, iv, 2 mg/kg
Experimental: (§1) TH 3423 and TH 3424 were tested in […] naïve monkeys (1 male and one female for each compound at 2 mg/kg) with 30-min intravenous infusion, TK sampling: on Day 1 and Day 15: 0.25, 0.5, 0.75, 1 and 2 hr post infusion initiation. Serum chemistry and hematology: pre-dose (Day 1), day 5, day 8 (pre-dose), day 15 (pre-dose), day 22 and day 28. Clinical observation: Daily during the study, total 35 days. Food consumption: Daily during the study, total 35 days. Bodyweight measurement: Twice weekly for five weeks.

[2] = Hematology in monkeys, 2 mg/kg 30-min IV infusion; assay type: in vivo, Cynomolgus monkeys; conditions: female
Experimental: as §1

C[C@H](OP(=O)(N1CC1)N1CC1)c1ccc([N+](=O)[O-])c(Oc2cccc(C(=O)N(C)C)c2)c1 (single isomer, unassigned) [TH3424]
AUC(0-inf) ([1]; both sexes, Mean): 1460 ng·h/mL
AUC(0-t) ([1]; both sexes, Mean): 1460 ng·h/mL
AUC(0-inf) ([1]; female): 1200 ng·h/mL
AUC(0-t) ([1]; female): 1200 ng·h/mL
AUC(0-inf) ([1]; male): 1730 ng·h/mL
AUC(0-t) ([1]; male): 1720 ng·h/mL
% BASO ([2]; Day 1 (pre-dose)): 0.1%
% EOS ([2]; Day 1 (pre-dose)): 3.3%
% MONO ([2]; Day 1 (pre-dose)): 0.9%
% NEUT ([2]; Day 1 (pre-dose)): 72.8%
HCT ([2]; Day 1 (pre-dose)): 35.7%
HGB ([2]; Day 1 (pre-dose)): 118 g/L
LYM ([2]; Day 1 (pre-dose)): 22.9%
MCH ([2]; Day 1 (pre-dose)): 25.4 pg
MCHC ([2]; Day 1 (pre-dose)): 331 g/L
MCV ([2]; Day 1 (pre-dose)): 76.8 fL
MPV ([2]; Day 1 (pre-dose)): 13 fL
PCT ([2]; Day 1 (pre-dose)): 0.277%
PDW ([2]; Day 1 (pre-dose)): 15.4
PLT ([2]; Day 1 (pre-dose)): 2.13e+11 L⁻¹
RBC ([2]; Day 1 (pre-dose)): 4.65e+12 L⁻¹
RDW-CV ([2]; Day 1 (pre-dose)): 11.5%
RDW-SD ([2]; Day 1 (pre-dose)): 37.4 fL
WBC ([2]; Day 1 (pre-dose)): 1.164e+10 L⁻¹
abs_basos ([2]; Day 1 (pre-dose)): 1e+07 L⁻¹
abs_eos ([2]; Day 1 (pre-dose)): 3.9e+08 L⁻¹
abs_lymphs ([2]; Day 1 (pre-dose)): 2.66e+09 L⁻¹
abs_monos ([2]; Day 1 (pre-dose)): 1.1e+08 L⁻¹
abs_neuts ([2]; Day 1 (pre-dose)): 8.47e+09 L⁻¹
% EOS ([2]; Day 8 (pre-dose)): 1.50%
% MONO ([2]; Day 8 (pre-dose)): 0.20%
% NEUT ([2]; Day 8 (pre-dose)): 49.10%
HCT ([2]; Day 8 (pre-dose)): 39.30%
HGB ([2]; Day 8 (pre-dose)): 130.00 g/L
LYM ([2]; Day 8 (pre-dose)): 18.90%
MCH ([2]; Day 8 (pre-dose)): 25.30 pg
MCHC ([2]; Day 8 (pre-dose)): 331.00 g/L
MCV ([2]; Day 8 (pre-dose)): 76.30 fL
MPV ([2]; Day 8 (pre-dose)): 12.80 fL
PCT ([2]; Day 8 (pre-dose)): 0.50%
PDW ([2]; Day 8 (pre-dose)): 15.50
PLT ([2]; Day 8 (pre-dose)): 3.9e+11 L⁻¹
RBC ([2]; Day 8 (pre-dose)): 5.15e+12 L⁻¹
RDW-CV ([2]; Day 8 (pre-dose)): 11.20%
RDW-SD ([2]; Day 8 (pre-dose)): 36.20 fL
WBC ([2]; Day 8 (pre-dose)): 1.691e+10 L⁻¹
abs_basos ([2]; Day 8 (pre-dose)): 5.13e+09 L⁻¹
abs_eos ([2]; Day 8 (pre-dose)): 2.6e+08 L⁻¹
abs_lymphs ([2]; Day 8 (pre-dose)): 3.2e+09 L⁻¹
abs_monos ([2]; Day 8 (pre-dose)): 3e+07 L⁻¹
abs_neuts ([2]; Day 8 (pre-dose)): 8.29e+09 L⁻¹
% BASO ([2]; Day 15 (pre-dose)): 0.90%
% EOS ([2]; Day 15 (pre-dose)): 1.70%
% MONO ([2]; Day 15 (pre-dose)): 3.00%
% NEUT ([2]; Day 15 (pre-dose)): 80.8%
HCT ([2]; Day 15 (pre-dose)): 36.3%
HGB ([2]; Day 15 (pre-dose)): 125 g/L
LYM ([2]; Day 15 (pre-dose)): 13.60%
MCH ([2]; Day 15 (pre-dose)): 25.3 pg
MCHC ([2]; Day 15 (pre-dose)): 344 g/L
MCV ([2]; Day 15 (pre-dose)): 73.5 fL
MPV ([2]; Day 15 (pre-dose)): 12.5 fL
PCT ([2]; Day 15 (pre-dose)): 0.275%
PDW ([2]; Day 15 (pre-dose)): 16.2
PLT ([2]; Day 15 (pre-dose)): 2.21e+11 L⁻¹
RBC ([2]; Day 15 (pre-dose)): 4.94e+12 L⁻¹
RDW-CV ([2]; Day 15 (pre-dose)): 11.0%
RDW-SD ([2]; Day 15 (pre-dose)): 34.1 fL
WBC ([2]; Day 15 (pre-dose)): 2.07e+10 L⁻¹
abs_basos ([2]; Day 15 (pre-dose)): 1.9e+08 L⁻¹
abs_eos ([2]; Day 15 (pre-dose)): 3.7e+08 L⁻¹
